Laboratory results published in patent publication US8124365B2, “Identification of genotype-selective anti-tumor agents” (Whitehead Institute for Biomedical Research, priority 2003, dated 2012).

Legend:
Assay type in all cases: cell-based, human
BJ primary cells = assay: Co-treatment of BJ primary cells with camptothecin or erastin and a second compound, calcein AM viability staining; details: for sensitization of BJ cells to camptothecin: simultaneous treatment with camptothecin; for effect on BJ cell viability on its own: calcein AM
Excerpt: (A-C) Western blot of lysates from BJ, BJ-TERT, BJ-TERT/LT/ST, BJ-TERT/LT/ST/RAS^V12, BJ-TERT/LT/RAS^V12 and BJ-TERT/LT/RAS^V12/ST cells with an antibody directed against topoisomerase II (A) or TOPI (B, C). In panel (C), cells were transfected with an siRNA directed against TOPI, lamic A/C or with a control double strand DNA duplex of the same length (TOPI dsDNA). In each case, the blot was probed with an antibody against eIF-4E to identify differences in the amount of protein loaded. The relative amount is quantitated below each band. […] Cell number was determined after transfection with an siRNA directed against TOPI and treatment with the indicated concentrations of camptothecin. (E) Okadaic acid, an inhibitor of PP2A and other cellular phosphatases, sensitizes primary human cells to camptothecin. BJ primary cells were treated simultaneously with the indicated concentrations of both camptothecin and okadaic acid and the effect on calcein AM viability staining was determined. […] BJ primary cells were treated with the indicated concentrations of okadaic acid and the expression level of TOPI was determined by western blot. The relative amount is quantitated below each band.
The compounds in group (iii) are camptothecin (CPT) and a novel compound from a combinatorial library, which Applicants have named erastin, for eradicator of RAS and ST-expressing cells (FIG. 2). Efficient CPT-induced and erastin-induced cell death requires the presence of both ST and RAS^V12 (FIGS. 3 and 4 and Table 1). Although CPT and erastin have a similar genetic basis of selectivity, they have distinct mechanisms of action. […] The phosphatase inhibitor okadaic acid was capable of sensitizing otherwise resistant BJ primary cells to CPT (FIG. 5E), possibly because okadaic acid upregulates TOP1 (FIG. 5F).

[1] = test system: tumor cells (BJELR cells) versus normal cells (BJEH cells); assay: Testing of erastin analogs for activity and selectivity in tumor cells versus normal cells
Excerpt: Applicants additionally tested 135 analogs of erastin for activity and selectivity in tumor cells versus normal cells. […] This compound was named erastin B (see FIG. 8). […] BJELR cells are BJ-TERT/LT/ST/RAS^V12 cells, and BJEH are BJ-TERT cells.

reactive oxygen species = assay: ROS analysis, flow cytometry using H2DCF-DA; details: engineered cells
Excerpt: 2′7′ dichlorodihydrofluorescein diacetate (H2DCF-DA) is a non-fluorescent cell permeable compound. The endogenous esterase enzyme inside the cell cleaves the diacetate part, and it can no longer pass out of the cell. Thus it accumulates in the cell. Then H2DCF reacts with ROS to form fluorescent dichlorofluorescene (DCF) which can be measured by flow cytometry in FL1 channel. • 1. Seed cells at 3×10^5 cells per dish in 60 mm dishes and allow to grow overnight. • 2. Treat with the test compound for different period of time (1-10 hr). • 3. Maintain one dish for untreated cells, compound treated cell and positive control dish (hydrogen peroxide treated) for each time point. • 4. Incubate the cells with 10 μM of H2DCF-DA for 10 minutes at 37° C. • 5. For positive control cells, after 5 minutes of H2DCF-DA loading, add 500 μM of hydrogen peroxide and incubate for 5 minutes further. • 6. Harvest the cell by trypsinization. • 7. Wash with cold PBS-twice. • 8. Resuspend the pellet in 100 μl of PBS and transfer into 5 ml FACS tube. • 9. Add 5 μl of propidium iodide (50 μg/ml) and incubate for 10 minutes on ice in dark. • 10. Add 400 μl of PBS and analyze by flow cytometry (Becton-Dickinson). • 11. Acquire the data and analyze using CellQuest software program. • 12. Take only propidium iodiode negative cells (viable cells) for the analysis for DCF staining using the FL1 channel, PI in FL3 channel, plot a quadrant chart.

[2] = test system: BJ-TERT/LT/ST/RAS^V12 cells; assay: Calcein AM viability assay, dilution series, BJ-TERT/LT/ST/RAS^V12 tumorigenic cells
Experimental: Described here is work carried out to identify compounds with increased potency or activity in the presence of hTERT, LT, ST, E6, E7 or RAS^V12. […] The primary screen tested (in quadruplicate) the effect of treating tumorigenic […], corresponding to 10 μM for a compound with a molecular weight of 400, which is the approximate median molecular weight of the libraries. […] In live cells, calcein AM is cleaved by intracellular esterases, forming the anionic fluorescent derivative calcein, which cannot diffuse out of live cells. […] The IC50 value (concentration required to inhibit 50% of the calcein AM signal) was calculated for each compound in each cell line (Table 1).
Calcein acetoxylmethyl ester (AM) is a cell membrane-permeable, non-fluorescent compound that is cleaved by intracellular esterases to form the anionic, cell-impermeable, fluorescent compound calcein. Viable cells are stained by calcein because of the presence of intracellular esterases and because the intact plasma membrane prevents fluorescent calcein from leaking out of cells (Wang et al., 1993, supra). Cells were seeded in 384-well plates using a Zymark Sciclone ALH, treated with each […], washed with phosphate-buffered saline on a Packard Minitrak with a 384-well washer and incubated for four hours with 0.7 μg/mL calcein (Molecular Probes). Total fluorescence intensity in each well was recorded on a Packard Fusion platereader, and converted to a percent inhibition of signal by subtracting the instrument background and dividing by the average signal obtained when cells were not treated with any compound.
Compounds to be retested were purchased from manufacturers. Stocks were prepared in DMSO at a concentration of 1 mg/ml in 384-well polypropylene plates with a 16-point, two-fold dilution dose curve of each compound in a column, in duplicates. Column 1-2 and 23-24 were left empty for controls. Daughter retest plates were prepared from stock retest plate by diluting 66.6 fold in DMEM in 384-well deep-deep well plates (4.5 μl transfer into 300 μl). Cells were seeded at a density of 6000 per well in 40 μl, and 20 μl was added from a daughter retest plate. […]
The IC50 in primary BJ cells was divided by the IC50 in BJ-TERT/LT/ST/RAS^V12 tumorigenic cells to obtain a tumor selectivity ratio for each compound. The compound selectivity for each genetic element was determined by calculating the selectivity ratio for each subsequent pair of cell lines in a series.

TOP1 = assay: Western blot of TOP1 expression in okadaic acid-treated BJ primary cells
Excerpt: (A-C) Western blot of lysates from BJ, BJ-TERT, BJ-TERT/LT/ST, BJ-TERT/LT/ST/RAS^V12, BJ-TERT/LT/RAS^V12 and BJ-TERT/LT/RAS^V12/ST cells with an antibody directed against topoisomerase II (A) or TOPI (B, C). In panel (C), cells were transfected with an siRNA directed against TOPI, lamic A/C or with a control double strand DNA duplex of the same length (TOPI dsDNA). In each case, the blot was probed with an antibody against eIF-4E to identify differences in the amount of protein loaded. The relative amount is quantitated below each band. […] Cell number was determined after transfection with an siRNA directed against TOPI and treatment with the indicated concentrations of camptothecin. (E) Okadaic acid, an inhibitor of PP2A and other cellular phosphatases, sensitizes primary human cells to camptothecin. BJ primary cells were treated simultaneously with the indicated concentrations of both camptothecin and okadaic acid and the effect on calcein AM viability staining was determined. […] BJ primary cells were treated with the indicated concentrations of okadaic acid and the expression level of TOPI was determined by western blot. The relative amount is quantitated below each band. […]

BJELR cells = assay: Screen of ACL library for suppressors of erastin activity in BJELR cells; details: 5 μg/ml erastin
Experimental: ACL library comprises 1,540 compounds and all compounds were prepared in DMSO at […] in 384-well polypropylene plates and stored at −20° C. Replica daughter plates for each library plate were prepared using Zymark Scilone ALH. The daughter plates were diluted 50 fold in DMEM and compound concentration in the daughter plate is 80 μg/ml with 2% DMSO. In assay plate compound from the daughter plate is diluted 20 fold with cell suspension, thus final concentration of each compound is 4 μg/ml.
BJELR cells were seeded at 6000 cells/well (57 μl) (for co-treatment screen) and 5000 cells/well (57 μl) (for pretreatment screen) in 384-well black, clear bottom plates using syringe bulk dispenser. For co-treatment suppressor screen, cells were treated with 3 μl of compound from the daughter plates of ACL library (final concentration in assay plate at 4 μg/ml) and at the same time treated with 5 μg/ml of erastin. Compound transfer was done using 384 fixed cannula head. Plates were incubated for 48 hours at 37° C. in incubator with 5% CO2. For the pretreatment screens, cells were pre-incubated with the compound from ACL daughter library plate for overnight and then treated with 5 μg/ml of erastin for further 48 hours. […] Fluorescence intensity was determined using Fusion platereader with filters centered in an excitation of 485 nm and emission of 535 nm. […]

[3] = test system: BJ-TERT/LT/ST/RAS^V12 cells; assay: Pan-caspase inhibitor block of compound-induced cell death; details: 50 μM inhibitor

Molecule: COc1cc([C@@H]2c3cc4c(cc3[C@H](O)[C@H]3COC(=O)[C@H]23)OCO4)cc(OC)c1OC [podophyllotoxin]
- sensitization of BJ cells to camptothecin (BJ primary cells): does not sensitize BJ or BJ-TERT cells to CPT

Molecule: erastin B
- activity and selectivity in tumor cells versus normal cells [1]: active and selective, but less potent than erastin

Molecule: COc1cccc2c1C(=O)c1c(O)c3c(c(O)c1C2=O)C[C@@](O)(C(=O)CO)C[C@@H]3O[C@H]1C[C@H](N)[C@H](O)[C@H](C)O1 [Doxorubicin, doxorubicin]
- formation of reactive oxygen species (reactive oxygen species): did not observe the formation of ROS

Molecule: CCOc1ccccc1-n1c(C(C)N2CCN(C(=O)COc3ccc(Cl)cc3)CC2)nc2ccccc2c1=O (stereo not drawn) [Erastin, erastin]
- effectiveness of cell death ([2]; BJ-TERT/LT/ST/RAS^V12 cells, within 18 hours): 100%

Molecule: COc1cccc2c1C(=O)c1c(O)c3c(c(O)c1C2=O)C[C@@](O)(C(C)=O)C[C@@H]3O[C@H]1C[C@H](N)[C@H](O)[C@H](C)O1 [Daunorubicin, daunorubicin]
- formation of reactive oxygen species (reactive oxygen species): did not observe the formation of ROS

Molecule: C=C1[C@@H](O)[C@@H]2O[C@]3(CC[C@H](/C=C/[C@@H](C)[C@@H]4CC(C)=C[C@@]5(O[C@H](C[C@@](C)(O)C(=O)O)CC[C@H]5O)O4)O3)CC[C@H]2O[C@@H]1[C@@H](O)C[C@H](C)[C@H]1O[C@@]2(CCCCO2)CC[C@H]1C [okadaic acid]
- sensitization of BJ or BJ-TERT cells to erastin (BJ primary cells): does not render BJ or BJ-TERT cells sensitive to erastin
- effect on BJ cell viability on its own (BJ primary cells; 3.4 nM): no effect on its own
- effect on BJ cell viability on its own (BJ primary cells; highest concentrations tested): kills BJ cells
- sensitization of BJ cells to camptothecin (BJ primary cells): renders BJ cells sensitive to camptothecin
- expression level of TOP1 (TOP1): stimulates expression of TOP1

Molecule: Cc1c(C)c2c(c(C)c1O)CC[C@@](C)(CCC[C@H](C)CCC[C@H](C)CCCC(C)C)O2 [α-tocopherol]
- suppression of erastin activity (BJELR cells): suppress erastin activity

Molecule: COC(=O)CC(NC(=O)OC(C)(C)C)C(=O)CF [BOC-D-FMK, Boc-Asp(Ome)-fluoromethyl ketone]
- block of cell death induced by CPT [3]: partially blocked cell death induced by CPT
- block of cell death induced by erastin [3]: not by erastin

Molecule: O=C1c2c(O)ccc(O)c2C(=O)c2c(NCCNCCO)ccc(NCCNCCO)c21 [Mitoxantrone, mitoxantrone]
- Tumor Selectivity ([2]; IC50 in primary BJ cells divided by IC50 in BJ-TERT/LT/ST/RAS^V12 tumorigenic cells): 16
- formation of reactive oxygen species (reactive oxygen species): did not observe the formation of ROS
